The text below walks through data of US20250312499A1, “KISSPEPTIN RECEPTOR (KISS1R) TARGETED THERAPEUTICS AND USES THEREOF” (priority 2024, published 2025).

The target of this experiment is human kisspeptin receptor (Homo sapiens (Human), UniProt Q969F8). The experiment is described as follows: Human KISS1R binding assay (membrane competition binding). The note with it: 90 min at room temperature; competition with 0.2 nM [125I]-metastin (45-54); Flp-In T-Rex 293 kisspeptin membranes; metal complexes nonradioactive Ga, In, Lu; read-out: hKiSSR Binding Ki (90 min). The gist of the method:
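Radioligand competition: 0.2 nM [125I]-metastin (45-54) displaced by test ligand (usually 0–10,000 nM) over 90 min at room temperature, pH 7.4 buffer with 0.1% BSA. Receptor source is crude membrane (5–10 μg) from tetracycline-induced Flp-In T-Rex 293 cells. Bound label filtered and counted; Ki from non-linear regression.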

Molecules are shown by their SMILES. Numbered stars: 1 amine (or outer) side, 2 acyl side, 3 side chain; on linkers, the order of the positions; unused ones are H or OH. Square brackets hold non-standard residues; d marks the D form. Peptide text beside a SMILES is read from it. * marks the point of attachment. DOTA = O=C(O)CN1CCN(CC(=O)O)CCN(CC(=O)*)CCN(CC(=O)O)CC1; Gly(N-(3-F-4-Me-benzyl)) = Cc1ccc(CNCC(=O)*)cc1F; Propanoyl(3-(MeO(CH2CH2O)2)) = COCCOCCOCCC(=O)*; Gly(Nα-4-MeO-benzyl) = COc1ccc(CNCC(=O)*)cc1; Phe(4-CN) = N#Cc1ccc(C[C@H](N)C(=O)O)cc1; HO(CH2CH2O)2CH2CH2CO = O=C(CCOCCOCCO)*; X9 = O=C(CCOCCOCCOCCOCCOCCOCCOCCOCCO)*; X1 = O=C(CN1CCC(N[*:1])CC1)[*:2]; 4Pal = N[C@@H](Cc1ccncc1)C(=O)O; 4Amb = NCc1ccc(C(=O)O)cc1; Api = NC1(C(=O)O)CCNCC1; azaGly = NNC(=O)O

Chain of human kisspeptin receptor (Q969F8 whole entry): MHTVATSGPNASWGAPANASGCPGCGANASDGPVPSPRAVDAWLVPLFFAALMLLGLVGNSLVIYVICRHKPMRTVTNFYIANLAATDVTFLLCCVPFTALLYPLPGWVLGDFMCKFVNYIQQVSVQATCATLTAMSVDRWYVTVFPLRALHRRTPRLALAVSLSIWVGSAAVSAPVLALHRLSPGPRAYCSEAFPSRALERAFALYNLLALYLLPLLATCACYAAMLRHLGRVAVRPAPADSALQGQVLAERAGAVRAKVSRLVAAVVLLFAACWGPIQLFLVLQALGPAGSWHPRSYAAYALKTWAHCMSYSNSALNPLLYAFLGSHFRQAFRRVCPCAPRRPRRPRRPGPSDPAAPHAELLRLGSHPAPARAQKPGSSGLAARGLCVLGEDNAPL

The Ki is a dissociation constant, usually derived from enzyme kinetics or from competition with a known ligand. On to `COc1ccc(CNCC(=O)N2CCC(NC(=O)[C@@H](CC(C)C)NC(=O)NNC(=O)[C@H](Cc3ccccc3)NC(=O)[C@@H](NC(=O)[C@H](CC(N)=O)NC(=O)[C@H](CCC(=O)O)NC(=O)CN3CCN(CC(=O)O)CCN(CC(=O)O)CCN(CC(=O)O)CC3)[C@@H](C)O)(C(=O)N[C@@H](Cc3ccccc3)C(N)=O)CC2)cc1` [Compound 239] ({DOTA}-ENTF[azaGly][dL][Api](Gly(Nα-4-MeO-benzyl))F-NH2), for which the inhibition constant Ki was > 100 nM.

For `Cc1ccc(CNCC(=O)N2CCC(NC(=O)[C@H](CC(C)C)NC(=O)NNC(=O)[C@H](Cc3ccccc3)NC(=O)[C@@H](NC(=O)[C@H](CC(N)=O)NC(=O)c3ccc(CNC(=O)CN4CCN(CC(=O)O)CCN(CC(=O)O)CCN(CC(=O)O)CC4)cc3)[C@@H](C)O)(C(=O)N[C@@H](Cc3ccc(C#N)cc3)C(N)=O)CC2)cc1F` [Compound 240] ({DOTA-4Amb}-NTF[azaGly]L[Api](Gly(N-(3-F-4-Me-benzyl)))[Phe(4-CN)]-NH2), the Ki is < 10 nM.

Take `Cc1ccc(CNCC(=O)N2CCC(NC(=O)[C@H](CC(C)C)NC(=O)NNC(=O)[C@H](Cc3ccccc3)NC(=O)[C@@H](NC(=O)[C@H](CC(N)=O)NC(=O)[C@H](CCC(=O)O)NC(=O)c3ccc(CNC(=O)CN4CCN(CC(=O)O)CCN(CC(=O)O)CCN(CC(=O)O)CC4)cc3)[C@@H](C)O)(C(=O)N[C@@H](Cc3ccc(C#N)cc3)C(N)=O)CC2)cc1F` [Compound 241] ({DOTA-4Amb}-ENTF[azaGly]L[Api](Gly(N-(3-F-4-Me-benzyl)))[Phe(4-CN)]-NH2): the Ki was < 10 nM.

As to `Cc1ccc(CNCC(=O)N2CCC(NC(=O)[C@H](CC(C)C)NC(=O)NNC(=O)[C@H](Cc3ccccc3)NC(=O)[C@@H](NC(=O)[C@H](CC(N)=O)NC(=O)[C@@H](CCC(=O)O)NC(=O)c3ccc(CNC(=O)CN4CCN(CC(=O)O)CCN(CC(=O)O)CCN(CC(=O)O)CC4)cc3)[C@@H](C)O)(C(=O)N[C@@H](Cc3ccc(C#N)cc3)C(N)=O)CC2)cc1F` [Compound 242] ({DOTA-4Amb}-[dE]NTF[azaGly]L[Api](Gly(N-(3-F-4-Me-benzyl)))[Phe(4-CN)]-NH2), the inhibitory constant (Ki) is < 10 nM.

Consider `Cc1ccc(CNCC(=O)N2CCC(NC(=O)[C@H](CC(C)C)NC(=O)NNC(=O)[C@H](Cc3ccccc3)NC(=O)CN3CCC(NC(=O)CN4CCN(CC(=O)O)CCN(CC(=O)O)CCN(CC(=O)O)CC4)CC3)(C(=O)N[C@@H](Cc3ccc(C#N)cc3)C(N)=O)CC2)cc1F` [Compound 244] ({DOTA}-[X1]F[azaGly]L[Api](Gly(N-(3-F-4-Me-benzyl)))[Phe(4-CN)]-NH2), for which the Ki was < 10 nM.

With `Cc1ccc(CNCC(=O)N2CCC(NC(=O)[C@H](CC(C)C)NC(=O)NNC(=O)[C@H](Cc3ccccc3)NC(=O)CN3CCC(NC(=O)CN4CCN(CC(=O)O)CCN(CC(=O)O)CCN(CC(=O)O)CC4)CC3)(C(=O)N[C@@H](Cc3ccccc3)C(N)=O)CC2)cc1F` [Compound 245] ({DOTA}-[X1]F[azaGly]L[Api](Gly(N-(3-F-4-Me-benzyl)))F-NH2), the inhibition constant (Ki) is < 10 nM.

For the compound `Cc1ccc(CNCC(=O)N2CCC(NC(=O)[C@H](CC(C)C)NC(=O)NNC(=O)[C@H](Cc3ccccc3)NC(=O)CN3CCC(NC(=O)CN4CCN(CC(=O)O)CCN(CC(=O)O)CCN(CC(=O)O)CC4)CC3)(C(=O)N[C@@H](Cc3ccncc3)C(N)=O)CC2)cc1F` [Compound 246] ({DOTA}-[X1]F[azaGly]L[Api](Gly(N-(3-F-4-Me-benzyl)))[4Pal]-NH2), the Ki fell in the range of 10 to 100 nM.

With `Cc1ccc(CNCC(=O)N2CCC(NC(=O)[C@H](CC(C)C)NC(=O)NNC(=O)[C@H](Cc3ccccc3)NC(=O)CN3CCC(NC(=O)CN4CCN(CC(=O)O)CCN(CC(=O)O)CCN(CC(=O)O)CC4)CC3)(C(=O)N[C@@H](Cc3ccc(O)cc3)C(N)=O)CC2)cc1F` [Compound 247] ({DOTA}-[X1]F[azaGly]L[Api](Gly(N-(3-F-4-Me-benzyl)))Y-NH2), the inhibitory constant (Ki) is < 10 nM.

Consider `Cc1ccc(CNCC(=O)N2CCC(NC(=O)[C@H](CC(C)C)NC(=O)NNC(=O)[C@H](Cc3ccccc3)NC(=O)CN3CCC(NC(=O)CN4CCN(CC(=O)O)CCN(CC(=O)O)CCN(CC(=O)O)CC4)CC3)(C(=O)N[C@@H](Cc3c[nH]cn3)C(N)=O)CC2)cc1F` [Compound 248] ({DOTA}-[X1]F[azaGly]L[Api](Gly(N-(3-F-4-Me-benzyl)))H-NH2), for which the inhibition constant (Ki) was > 100 nM.

In the case of `Cc1ccc(CNCC(=O)N2CCC(NC(=O)[C@H](CC(C)C)NC(=O)NNC(=O)[C@H](Cc3ccccc3)NC(=O)[C@@H](NC(=O)[C@H](CC(N)=O)NC(=O)CN3CCC(NC(=O)CN4CCN(CC(=O)O)CCN(CC(=O)O)CCN(CC(=O)O)CC4)CC3)[C@@H](C)O)(C(=O)N[C@@H](Cc3ccc(O)cc3)C(N)=O)CC2)cc1F` [Compound 249] ({DOTA}-[X1]NTF[azaGly]L[Api](Gly(N-(3-F-4-Me-benzyl)))Y-NH2), the Ki is < 10 nM.

Take `Cc1ccc(CNCC(=O)N2CCC(NC(=O)[C@H](CC(C)C)NC(=O)NNC(=O)[C@H](Cc3ccccc3)NC(=O)[C@@H](NC(=O)CN3CCC(NC(=O)CN4CCN(CC(=O)O)CCN(CC(=O)O)CCN(CC(=O)O)CC4)CC3)[C@@H](C)O)(C(=O)N[C@@H](Cc3ccc(O)cc3)C(N)=O)CC2)cc1F` [Compound 250] ({DOTA}-[X1]TF[azaGly]L[Api](Gly(N-(3-F-4-Me-benzyl)))Y-NH2): the Ki is < 10 nM.

On to `Cc1ccc(CNCC(=O)N2CCC(NC(=O)[C@H](CC(C)C)NC(=O)NNC(=O)[C@H](Cc3ccccc3)NC(=O)[C@@H](NC(=O)[C@H](CCCCNC(=O)CN3CCN(CC(=O)O)CCN(CC(=O)O)CCN(CC(=O)O)CC3)NC(=O)CCOCCOCCO)[C@@H](C)O)(C(=O)N[C@@H](Cc3ccncc3)C(N)=O)CC2)cc1F` [Compound 251] ({HO(CH2CH2O)2CH2CH2CO}-K(DOTA)TF[azaGly]L[Api](Gly(N-(3-F-4-Me-benzyl)))[4Pal]-NH2), for which the inhibition constant Ki was > 100 nM.

In the case of `Cc1ccc(CNCC(=O)N2CCC(NC(=O)[C@H](CC(C)C)NC(=O)NNC(=O)[C@H](Cc3ccccc3)NC(=O)[C@@H](NC(=O)[C@H](CCC(=O)O)NC(=O)[C@H](CCCCNC(=O)CN3CCN(CC(=O)O)CCN(CC(=O)O)CCN(CC(=O)O)CC3)NC(=O)CCOCCOCCO)[C@@H](C)O)(C(=O)N[C@@H](Cc3ccncc3)C(N)=O)CC2)cc1F` [Compound 252] ({HO(CH2CH2O)2CH2CH2CO}-K(DOTA)ETF[azaGly]L[Api](Gly(N-(3-F-4-Me-benzyl)))[4Pal]-NH2), the Ki was > 100 nM.

Take `Cc1ccc(CNCC(=O)N2CCC(NC(=O)[C@H](CC(C)C)NC(=O)NNC(=O)[C@H](Cc3ccccc3)NC(=O)[C@@H](NC(=O)[C@H](CC(N)=O)NC(=O)[C@H](CCCCNC(=O)CN3CCN(CC(=O)O)CCN(CC(=O)O)CCN(CC(=O)O)CC3)NC(=O)CCOCCOCCO)[C@@H](C)O)(C(=O)N[C@@H](Cc3ccncc3)C(N)=O)CC2)cc1F` [Compound 253] ({HO(CH2CH2O)2CH2CH2CO}-K(DOTA)NTF[azaGly]L[Api](Gly(N-(3-F-4-Me-benzyl)))[4Pal]-NH2): the Ki is < 10 nM.

Regarding `Cc1ccc(CNCC(=O)N2CCC(NC(=O)[C@H](CC(C)C)NC(=O)NNC(=O)[C@H](Cc3ccccc3)NC(=O)[C@@H](NC(=O)[C@H](CC(N)=O)NC(=O)[C@@H](CCCCNC(=O)CN3CCN(CC(=O)O)CCN(CC(=O)O)CCN(CC(=O)O)CC3)NC(=O)CCOCCOCCO)[C@@H](C)O)(C(=O)N[C@@H](Cc3ccncc3)C(N)=O)CC2)cc1F` [Compound 254] ({HO(CH2CH2O)2CH2CH2CO}-[dK](DOTA)NTF[azaGly]L[Api](Gly(N-(3-F-4-Me-benzyl)))[4Pal]-NH2), the Ki was < 10 nM.

Turning to `COCCOCCOCCC(=O)N[C@@H](CCCCNC(=O)CN1CCN(CC(=O)O)CCN(CC(=O)O)CCN(CC(=O)O)CC1)C(=O)N[C@@H](CC(N)=O)C(=O)N[C@H](C(=O)N[C@@H](Cc1ccccc1)C(=O)NNC(=O)N[C@@H](CC(C)C)C(=O)NC1(C(=O)N[C@@H](Cc2ccncc2)C(N)=O)CCN(C(=O)CNCc2ccc(C)c(F)c2)CC1)[C@@H](C)O` [Compound 255] ({Propanoyl(3-(MeO(CH2CH2O)2))}-K(DOTA)NTF[azaGly]L[Api](Gly(N-(3-F-4-Me-benzyl)))[4Pal]-NH2), the inhibitory constant (Ki) was < 10 nM.

Regarding `Cc1ccc(CNCC(=O)N2CCC(NC(=O)[C@H](CC(C)C)NC(=O)NNC(=O)[C@H](Cc3ccccc3)NC(=O)[C@@H](NC(=O)[C@H](CC(N)=O)NC(=O)[C@H](CCCCNC(=O)CN3CCN(CC(=O)O)CCN(CC(=O)O)CCN(CC(=O)O)CC3)NC(=O)CCOCCOCCOCCOCCOCCOCCOCCOCCO)[C@@H](C)O)(C(=O)N[C@@H](Cc3ccncc3)C(N)=O)CC2)cc1F` [Compound 256] (X9-K(DOTA)NTF[azaGly]L[Api](Gly(N-(3-F-4-Me-benzyl)))[4Pal]-NH2), the Ki is < 10 nM.

In the case of `Cc1ccc(CNCC(=O)N2CCC(NC(=O)[C@H](CC(C)C)NC(=O)NNC(=O)[C@H](Cc3ccncc3)NC(=O)[C@@H](NC(=O)[C@H](CC(N)=O)NC(=O)CN3CCC(NC(=O)CN4CCN(CC(=O)O)CCN(CC(=O)O)CCN(CC(=O)O)CC4)CC3)[C@@H](C)O)(C(=O)N[C@@H](Cc3ccncc3)C(N)=O)CC2)cc1F` [Compound 258] ({DOTA}-[X1]NT[4Pal][azaGly]L[Api](Gly(N-(3-F-4-Me-benzyl)))[4Pal]-NH2), the Ki was > 100 nM.

For `Cc1ccc(CNCC(=O)N2CCC(NC(=O)[C@H](CC(C)C)NC(=O)NNC(=O)[C@H](Cc3ccncc3)NC(=O)[C@@H](NC(=O)[C@H](CC(N)=O)NC(=O)c3ccc(CNC(=O)CN4CCN(CC(=O)O)CCN(CC(=O)O)CCN(CC(=O)O)CC4)cc3)[C@@H](C)O)(C(=O)N[C@@H](Cc3ccncc3)C(N)=O)CC2)cc1F` [Compound 259] ({DOTA-4Amb}-NT[4Pal][azaGly]L[Api](Gly(N-(3-F-4-Me-benzyl)))[4Pal]-NH2), the inhibition constant (Ki) fell in the range of 10 to 100 nM.

For the compound `Cc1ccc(CNCC(=O)N2CCC(NC(=O)[C@@H](CC(C)C)NC(=O)NNC(=O)[C@H](Cc3ccccc3)NC(=O)c3ccc(CNC(=O)CN4CCN(CC(=O)O)CCN(CC(=O)O)CCN(CC(=O)O)CC4)cc3)(C(=O)N[C@@H](Cc3c[nH]c4ccccc34)C(N)=O)CC2)cc1F` [Compound 260] ({DOTA-4Amb}-F[azaGly][dL][Api](Gly(N-(3-F-4-Me-benzyl)))W-NH2), the Ki was 10 to 100 nM.
